Measured values from PMC9662162 (Insect biochemistry and molecular biology, 2022).
Like-named read-outs stand apart in the source and are kept apart here.

Columns and labels:
AnDar-D7L2 = AnDar-D7L2 (Anopheles darlingi, UniProt B6DDQ8); assay: biochemical; format: binding; settings: for fold difference in binding tightness, serotonin vs tryptamine: ratio of KD values
AnAtr-D7L1 = target: T1, AnAtr-D7L1 (Anopheles atroparvus, UniProt A0A182IRF8); assay: ITC ligand binding to recombinant AnAtr-D7L1; settings: for binding observed by ITC (in words): 30°C, 4 μM protein, 40 μM ligand
T1 sequence (A0A182IRF8 24-316): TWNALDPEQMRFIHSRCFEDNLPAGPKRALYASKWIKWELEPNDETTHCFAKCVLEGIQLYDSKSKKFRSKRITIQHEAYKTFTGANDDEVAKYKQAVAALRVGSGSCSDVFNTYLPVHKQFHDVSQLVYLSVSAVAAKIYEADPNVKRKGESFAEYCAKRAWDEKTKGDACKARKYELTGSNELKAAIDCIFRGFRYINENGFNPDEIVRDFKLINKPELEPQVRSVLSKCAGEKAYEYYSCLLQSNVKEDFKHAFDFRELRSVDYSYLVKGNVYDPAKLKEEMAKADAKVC

An. gambiae D7L3 = An. gambiae D7L3 (Anopheles gambiae, UniProt A0A1S4HE90); assay: biochemical; format: binding
Sequence of An. gambiae D7L3 (A0A1S4HE90 27-354 limits assumed): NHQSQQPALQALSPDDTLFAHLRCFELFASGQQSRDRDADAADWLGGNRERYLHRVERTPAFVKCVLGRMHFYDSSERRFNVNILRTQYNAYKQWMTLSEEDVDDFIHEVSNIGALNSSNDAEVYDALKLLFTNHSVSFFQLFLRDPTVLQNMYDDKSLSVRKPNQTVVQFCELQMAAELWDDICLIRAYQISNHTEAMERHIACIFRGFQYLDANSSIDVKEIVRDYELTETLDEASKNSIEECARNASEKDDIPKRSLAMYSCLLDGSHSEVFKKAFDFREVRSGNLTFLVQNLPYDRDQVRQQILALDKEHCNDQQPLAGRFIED

Platelet-rich plasma = assay: Platelet aggregation assay in platelet-rich plasma; format: cell-based, human; settings: protein 0.6, 2 and 6 μM
AnSt-D7L1 = settings: ref Alvarenga et al., 2010; cited from earlier work
AeD7S1 = target: T2, AeD7S1 (Aedes aegypti, UniProt Q8T9T4); assay: ITC serotonin binding to recombinant AeD7S1; settings: 30°C, 4 μM protein, 40 μM serotonin
T2 sequence (Q8T9T4 22-148): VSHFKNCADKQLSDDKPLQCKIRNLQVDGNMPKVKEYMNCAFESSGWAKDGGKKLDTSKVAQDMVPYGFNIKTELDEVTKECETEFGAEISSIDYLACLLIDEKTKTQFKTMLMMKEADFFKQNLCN

D7CQS1 = target: T3, D7CQS1 (Culex quinquefasciatus, UniProt Q6TS00); assay: ITC serotonin binding to recombinant D7CQS1; settings: 30°C, 4 μM protein, 40 μM serotonin
T3 sequence (Q6TS00 19-161): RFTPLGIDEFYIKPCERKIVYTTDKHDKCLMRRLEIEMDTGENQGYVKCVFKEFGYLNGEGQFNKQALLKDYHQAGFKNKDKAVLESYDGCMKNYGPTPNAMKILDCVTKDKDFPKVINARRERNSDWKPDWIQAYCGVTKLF

Sequence of AnDar-D7L2 (B6DDQ8 21-317 limits assumed): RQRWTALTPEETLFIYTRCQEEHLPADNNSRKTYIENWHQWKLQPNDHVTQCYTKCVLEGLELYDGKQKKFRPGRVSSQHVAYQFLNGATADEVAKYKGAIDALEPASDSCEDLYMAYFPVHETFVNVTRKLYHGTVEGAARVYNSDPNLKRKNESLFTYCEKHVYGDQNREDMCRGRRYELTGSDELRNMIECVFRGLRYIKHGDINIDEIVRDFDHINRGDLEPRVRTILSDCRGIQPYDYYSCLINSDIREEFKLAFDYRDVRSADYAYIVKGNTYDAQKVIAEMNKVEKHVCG

## CCCCC/C=C\C\C=C/C=C/C=C/[C@@H](SC[C@H](NC(=O)CC[C@H](N)C(=O)O)C(=O)NCC(=O)O)[C@@H](O)CCCC(=O)O [LTC4]
AnDar-D7L2
  binding observed by ITC (in words): high affinity

## CCCCC/C=C\C[C@@H](O)/C=C/C=C/C=C\[C@@H](O)CCCC(=O)O [LTB4]
AnDar-D7L2
  binding observed by ITC (in words): unable to bind
AnAtr-D7L1
  binding observed by ITC (in words): No binding was detected

## CCCCC[C@H](O)/C=C/[C@@H]1[C@@H](C/C=C\CCCC(=O)O)[C@@H](O)C[C@H]1O [PGF2α]
AnAtr-D7L1
  binding observed by ITC (in words): No binding was detected

## NCC(O)c1ccc(O)cc1 (racemic) [octopamine, (±)-octopamine]
AnDar-D7L2; ITC, 30°C
  binding observed by ITC (in words): measurable

## CCCCC[C@H](O)/C=C/C=C\C/C=C\C/C=C\CCCC(=O)O [15-HETE]
AnAtr-D7L1
  binding observed by ITC (in words): No binding was detected

## NCCc1c[nH]cn1 [histamine]
AnDar-D7L2
  binding observed by ITC (in words): No detectable binding
An. gambiae D7L3
  Kd: 1530 nM

## CNC[C@H](O)c1ccc(O)c(O)c1 [epinephrine]
AnDar-D7L2
  binding observed by ITC (in words): No detectable binding

## AnDar-D7L2: recombinant two-domain D7 long form salivary protein from Anopheles darlingi (EU934268.1)
Platelet-rich plasma; agonist ADP
  effect on ADP-induced platelet aggregation: did not inhibit
Platelet-rich plasma; agonist U46619
  effect on platelet aggregation induced by U46619: inhibits
Platelet-rich plasma; agonist arachidonic acid
  effect on platelet aggregation induced by arachidonic acid (AA): inhibits
Platelet-rich plasma; agonist epinephrine
  effect on epinephrine-induced platelet aggregation: did not inhibit
Platelet-rich plasma; collagen at low concentrations, 1 min preincubation
  effect on platelet aggregation induced by collagen: inhibits

## CCCCC/C=C\C\C=C/C=C/C=C/[C@@H](SC[C@H](N)C(=O)NCC(=O)O)[C@@H](O)CCCC(=O)O [LTD4]
AnDar-D7L2
  binding observed by ITC (in words): high affinity

## CCCCC/C=C\C\C=C/C=C/C=C/[C@@H](SC[C@H](N)C(=O)O)[C@@H](O)CCCC(=O)O [LTE4]
AnDar-D7L2
  binding observed by ITC (in words): high affinity

## Nc1ncnc2c1ncn2[C@@H]1O[C@H](COP(=O)(O)OP(=O)(O)O)[C@@H](O)[C@H]1O [ADP]
AnDar-D7L2; ITC, 30°C
  binding observed by ITC (in words): inability to bind
An. gambiae D7L3; ITC, 30°C, 4 μM protein, 40 μM ligand
  binding observed by ITC (in words): none

## NC[C@H](O)c1ccc(O)c(O)c1 [norepinephrine, L(+)-norepinephrine]
AnDar-D7L2; ITC, 30°C
  binding observed by ITC (in words): measurable
An. gambiae D7L3
  Kd: 2530 nM

## CCCCC[C@H](O)/C=C/[C@@H]1[C@@H](C/C=C\CCCC(=O)O)[C@H]2CO[C@@H]1C2 [U46619]
AnDar-D7L2
  binding observed by ITC (in words): high affinity
AnAtr-D7L1
  binding observed by ITC (in words): does not bind
AnSt-D7L1
  binding (in words): ability to bind

## NCCc1c[nH]c2ccccc12 [tryptamine]
AnDar-D7L2
  Kd: 518 nM
AnDar-D7L2; ITC
  fold difference in binding tightness, serotonin vs tryptamine: 30 fold
AnAtr-D7L1
  binding observed by ITC (in words): equally high affinity

## NCCc1ccc(O)c(O)c1 [dopamine]
AnDar-D7L2
  binding observed by ITC (in words): measurable

## NCCc1c[nH]c2ccc(O)cc12 [serotonin]
AnDar-D7L2
  Kd: 17 nM
AnDar-D7L2; ITC
  fold difference in binding tightness, serotonin vs tryptamine: 30 fold
AnAtr-D7L1
  Kd: ~3 nM
An. gambiae D7L3
  Kd: 22 nM
AeD7S1
  serotonin binding by ITC (in words): Lack of serotonin binding
D7CQS1
  serotonin binding by ITC (in words): Lack of serotonin binding
AnSt-D7L1
  binding (in words): does not bind
